Laboratory results reported in paper PMC5470982, “Thymoquinone exerts potent growth-suppressive activity on leukemia through DNA hypermethylation reversal in leukemia cells” (Oncotarget, 2017).

Molecular target: T1, M. SssI (Spiroplasma monobiae, UniProt P15840)
T1 construct: gene sssIM
Test: in vitro DNA methylation assay with biotin/digoxigenin-labelled ds-oligonucleotide, HpaII cleavage and fluorescence readout
Assay type: biochemical

T1 sequence (P15840 whole entry, looked up): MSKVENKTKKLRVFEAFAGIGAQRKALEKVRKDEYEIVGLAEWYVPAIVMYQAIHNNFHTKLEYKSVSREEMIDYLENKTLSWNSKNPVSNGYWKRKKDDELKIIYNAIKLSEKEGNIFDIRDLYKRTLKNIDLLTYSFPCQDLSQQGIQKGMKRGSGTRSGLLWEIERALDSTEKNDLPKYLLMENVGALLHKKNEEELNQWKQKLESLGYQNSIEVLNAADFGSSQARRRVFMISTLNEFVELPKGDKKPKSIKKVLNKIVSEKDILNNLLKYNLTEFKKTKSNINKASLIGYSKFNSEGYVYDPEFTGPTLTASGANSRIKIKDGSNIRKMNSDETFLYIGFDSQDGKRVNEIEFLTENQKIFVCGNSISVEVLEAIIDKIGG

## CC1=CC(=O)C(C(C)C)=CC1=O [TQ, thymoquinone]
  IC50: 30 nM
